Experimental data: patent publication US7531554B2, “4-oxoquinoline compound and use thereof as HIV integrase inhibitor” (Japan Tobacco Inc., priority 2004, dated 2009)

molecular target: T1, HIV integrase (Human immunodeficiency virus type 1 group M subtype B, UniProt P12497, F1332H); assay: Determination of enzyme (HIV integrase) inhibitory activity; assay type: biochemical; conditions: recombinant integrase protein (F185H), donor DNA/target DNA, absorbance at 450 nm
T1 construct: HIV integrase full length gene (J. Virol., 67, 425-437 (1993)) in which phenylalanine at codon 185 was substituted by histidine; made in house; host or cells: Escherichia coli BL21(DE3)
Method: HIV integrase full length gene (J. Virol., 67, 425-437 (1993)) in which phenylalanine at codon 185 was substituted by histidine, was inserted between the restriction enzyme NdeI and XhoI sites of plasmid pET21a(+) (Novagen), whereby an integrase expression vector pET21a-IN-F185H was constructed.
Escherichia coli recombinant BL21(DE3) transformed with plasmid pET21a-IN-F185H obtained in (i) was shake cultured at 30° C. in a liquid medium containing ampicillin. When the culture reached the logarithmic growth phase, isopropyl-β-D-thiogalactopyranoside was added to promote expression of integrase gene. The culture was continued for 3 hr to promote accumulation of the integrase protein. The recombinant E. coli was collected in pellets by centrifugal separation and preserved at −80° C.
The E. coli was suspended in Lysis buffer (20 mM HEPES (pH 7.5), 5 mM DTT, 10 mM CHAPS, 10% glycerol) containing 1M sodium chloride and subjected to repeat pressurization and depressurization for rupture, and centrifugal separation at 4° C., 40,000×g, 60 min to recover a water-soluble fraction (supernatant). This was diluted 10-fold with Lysis buffer free of sodium chloride, mixed with SP-Sepharose (Pharmacia Corporation) and stirred at 4° C. for 60 min to allow adsorption of integrase protein to the resin. The resin was washed with Lysis buffer containing 100 mM sodium chloride and the integrase protein was eluted with Lysis buffer containing 1M sodium chloride.
The eluted integrase protein solution was subjected to a Superdex 75 (Pharmacia Corporation) column for gel filtration. The protein was eluted with Lysis buffer containing 1M sodium chloride.
The obtained fractions of the integrase protein were collected and preserved at −80° C.
The following DNA synthesized by Greiner was dissolved in TE buffer (10 mM Tris-hydrochloric acid (pH 8.0), 1 mM EDTA) and mixed with donor DNA, target DNA, and each complementary strand (+ and − strands) to 1 μM. The mixture was heated at 95° C. for 5 min, 80° C. for 10 min, 70° C. for 10 min, 60° C. for 10 min, 50° C. for 10 min and 40° C. for 10 min and kept at 25° C. to give a double stranded DNA, which was used for the test. Donor DNA ([…] attached to the 5′ terminal) Donor + strand: 5′-Biotin-ACCCTTTTAGTCAGTGTGGAAAATCTCTAGCA-3′ (SEQ ID NO:1) Donor − strand: 5′-ACTGCTAGAGATTTTCCACACTGACTAAAAG-3′ (SEQ ID NO:2) Target DNA (+, − strands both having digoxigenin added at 3′ terminal) Target + strand: 5′-TGACCAAGGGCTAATTCACT-Dig-3′ (SEQ ID NO:3) Target − strand: 5′-AGTGAATTAGCCCTTGGTCA-Dig-3′ (SEQ ID NO:4)
The donor DNA was diluted with TE buffer to 10 nM, of which 50 μl was added to each well of streptavidin-coated microtiter plate (Roche) and allowed to adsorb at 37° C. for 60 min. The plate was washed with phosphate buffer (Dulbecco's PBS, Sanko Junyaku Co., Ltd.) containing 0.1% Tween 20 and phosphate buffer. Then, an enzyme reaction mixture (70 μl), a test substance (10 μl) diluted with the reaction mixture and 100 μg/ml integrase protein (10 μl) were added to each well and reacted at 37° C. for 60 min.
Then, 50 nM target DNA (10 μl) was added, reacted at 37° C. for 10 min and washed with phosphate buffer containing 0.1% Tween 20 to stop the reaction.
Then, 100 mU/ml peroxidase labeled anti-digoxigenin antibody solution (Roche, 100 μl) was added, and the mixture was reacted at 37° C. for 60 min, followed by washing with phosphate buffer containing 0.1% Tween 20.
A peroxidase color solution (Bio Rad, 100 μl) was added and allowed to react at room temperature for 4 min. The color reaction was stopped by adding 1N sulfuric acid (100 μl). The absorbance at 450 nm was measured.
The HIV integrase inhibitory activity (IC50) of the compound of the present invention was calculated from the inhibition rate according to the following formula. […]

In order of rising IC50:
1. COc1cc2c(cc1Cc1ccc(F)c(Cl)c1F)c(=O)c(C(=O)O)cn2[C@H](CO)C(C)C [Example 1-5, 6-(3-chloro-2,4-difluorobenzyl)-1-((1S)-1-(hydroxymethyl)-2-methylpropyl)-7-methoxy-4-oxo-1,4-dihydroquinoline-3-carboxylic acid]  3.3 nM
2. CC(C)[C@@H](CO)n1cc(C(=O)O)c(=O)c2cc(Cc3cccc(Cl)c3F)cc(O)c21 [Example 3-5, 6-(3-chloro-2-fluorobenzyl)-8-hydroxy-1-((1S)-1-(hydroxymethyl)-2-methylpropyl)-4-oxo-1,4-dihydroquinoline-3-carboxylic acid]  4 nM
3. CC(C)[C@@H](CO)n1cc(C(=O)O)c(=O)c2cc(Cc3cccc(Cl)c3F)c(OCc3ccncc3)cc21 [Example 4-60, 6-(3-chloro-2-fluorobenzyl)-1-((1S)-1-(hydroxymethyl)-2-methylpropyl)-4-oxo-7-(pyridin-4-ylmethoxy)-1,4-dihydroquinoline-3-carboxylic acid]  4.3 nM
4. COCCOc1cc(Cc2cccc(Cl)c2F)cc2c(=O)c(C(=O)O)cn([C@H](CO)C(C)C)c12 [Example 3-4, 6-(3-chloro-2-fluorobenzyl)-1-((1S)-1-(hydroxymethyl)-2-methylpropyl)-8-(2-methoxyethoxy)-4-oxo-1,4-dihydroquinoline-3-carboxylic acid]  4.5 nM
5. COc1cc2c(cc1Cc1cccc(Cl)c1F)c(=O)c(C(=O)O)cn2[C@H](CO)C1CCOCC1 [Example 2-1, 6-(3-chloro-2-fluorobenzyl)-1-((1S)-2-hydroxy-1-(tetrahydropyran-4-yl)ethyl)-7-methoxy-4-oxo-1,4-dihydroquinoline-3-carboxylic acid]  4.6 nM
6. COc1cc2c(cc1Cc1cccc(Cl)c1F)c(=O)c(C(=O)O)cn2[C@H](CO)[C@@H](C)OC [Example 2-11, 6-(3-chloro-2-fluorobenzyl)-1-((1R,2R)-1-(hydroxymethyl)-2-methoxypropyl)-7-methoxy-4-oxo-1,4-dihydroquinoline-3-carboxylic acid]  5 nM
7. CC(C)[C@@H](CO)n1cc(C(=O)O)c(=O)c2cc(Cc3cccc(Cl)c3F)c(OCC(F)(F)F)cc21 [Example 4-62, 6-(3-chloro-2-fluorobenzyl)-1-((1S)-1-(hydroxymethyl)-2-methylpropyl)-4-oxo-7-(2,2,2-trifluoroethyloxy)-1,4-dihydroquinoline-3-carboxylic acid]  5.5 nM
8. COC[C@@H](CO)n1cc(C(=O)O)c(=O)c2cc(Cc3cccc(Cl)c3F)c(OC)cc21 [Example 2-18, 6-(3-chloro-2-fluorobenzyl)-1-((1R)-1-(hydroxymethyl)-2-methoxyethyl)-7-methoxy-4-oxo-1,4-dihydroquinoline-3-carboxylic acid]  6 nM
9. CC(C)[C@@H](CO)n1cc(C(=O)O)c(=O)c2cc(Cc3cccc(Cl)c3F)c(N3CCNC(=O)C3)cc21 [Example 4-35, 6-(3-chloro-2-fluorobenzyl)-1-((1S)-1-(hydroxymethyl)-2-methylpropyl)-4-oxo-7-(3-oxopiperazin-1-yl)-1,4-dihydroquinoline-3-carboxylic acid]  6 nM
10. CC(C)[C@@H](CO)n1cc(C(=O)O)c(=O)c2cc(Cc3cccc(Cl)c3F)c(N3CCN(C)CC3)cc21 [Example 4-10, 6-(3-chloro-2-fluorobenzyl)-1-((1S)-1-(hydroxymethyl)-2-methylpropyl)-7-(4-methylpiperazin-1-yl)-4-oxo-1,4-dihydroquinoline-3-carboxylic acid]  6.2 nM
11. CC(C)[C@@H](CO)n1cc(C(=O)O)c(=O)c2cc(Cc3cccc(Cl)c3F)c(OCc3ccccc3)cc21 [Example 4-43, 7-benzyloxy-6-(3-chloro-2-fluorobenzyl)-1-((1S)-1-(hydroxymethyl)-2-methylpropyl)-4-oxo-1,4-dihydroquinoline-3-carboxylic acid]  6.4 nM
12. CC(C)[C@@H](CO)n1cc(C(=O)O)c(=O)c2cc(Cc3cccc(Cl)c3F)c(OC3CCN(S(C)(=O)=O)CC3)cc21 [Example 4-64, 6-(3-chloro-2-fluorobenzyl)-1-((1S)-1-(hydroxymethyl)-2-methylpropyl)-7-(1-mesylpiperidin-4-yloxy)-4-oxo-1,4-dihydroquinoline-3-carboxylic acid]  6.6 nM
13. CCOC(=O)N1CCC(Nc2cc3c(cc2Cc2cccc(Cl)c2F)c(=O)c(C(=O)O)cn3[C@H](CO)C(C)C)CC1 [Example 4-40, 6-(3-chloro-2-fluorobenzyl)-7-(1-(ethoxycarbonyl)piperidin-4-ylamino)-1-((1S)-1-(hydroxymethyl)-2-methylpropyl)-4-oxo-1,4-dihydroquinoline-3-carboxylic acid]  6.8 nM
14. COc1cc2c(cc1Cc1cccc(Cl)c1F)c(=O)c(C(=O)O)cn2[C@H](CO)CCS(C)(=O)=O [Example 2-13, 6-(3-chloro-2-fluorobenzyl)-1-((1S)-1-(hydroxymethyl)-3-mesylpropyl)-7-methoxy-4-oxo-1,4-dihydroquinoline-3-carboxylic acid]  6.9 nM
15. CC1CN(c2cc3c(cc2Cc2cccc(Cl)c2F)c(=O)c(C(=O)O)cn3[C@H](CO)C(C)C)CC(C)N1 (stereo partly drawn) [Example 4-22, 6-(3-chloro-2-fluorobenzyl)-7-(3,5-dimethylpiperazin-1-yl)-1-((1S)-1-(hydroxymethyl)-2-methylpropyl)-4-oxo-1,4-dihydroquinoline-3-carboxylic acid]  7.1 nM
16. COc1cc2c(cc1Cc1c(O)ccc(Cl)c1F)c(=O)c(C(=O)O)cn2[C@H](CO)C(C)C [Example 1-3, 6-(3-chloro-2-fluoro-6-hydroxybenzyl)-1-((1S)-1-(hydroxymethyl)-2-methylpropyl)-7-methoxy-4-oxo-1,4-dihydroquinoline-3-carboxylic acid]  7.8 nM
17. CC(=O)N[C@H]1CCN(c2cc3c(cc2Cc2cccc(Cl)c2F)c(=O)c(C(=O)O)cn3[C@H](CO)C(C)C)C1 [Example 4-26, 7-((3S)-3-(acetylamino)pyrrolidin-1-yl)-6-(3-chloro-2-fluorobenzyl)-1-((1S)-1-(hydroxymethyl)-2-methylpropyl)-4-oxo-1,4-dihydroquinoline-3-carboxylic acid]  9.2 nM
18. COc1cc2c(cc1Cc1cccc(Cl)c1F)c(=O)c(C(=O)O)cn2[C@H](CO)CS(C)(=O)=O [Example 2-4, 6-(3-chloro-2-fluorobenzyl)-1-((1R)-1-(hydroxymethyl)-2-mesylethyl)-7-methoxy-4-oxo-1,4-dihydroquinoline-3-carboxylic acid]  10 nM
19. O=C(O)c1cn2c3c(cc(Cc4cccc(Cl)c4F)cc3c1=O)OCC2CO (centres unmarked) [Example 5-2, 8-(3-chloro-2-fluorobenzyl)-3-hydroxymethyl-6-oxo-2,3-dihydro-6H-1-oxa-3a-aza-phenalene-5-carboxylic acid]  47 nM
20. COc1cc2c(cc1Cc1c(F)cccc1C(F)(F)F)c(=O)c(C(=O)O)cn2[C@H](CO)C(C)C [Example 1-12, 6-(2-fluoro-6-(trifluoromethyl)benzyl)-1-((1S)-1-(hydroxymethyl)-2-methylpropyl)-7-methoxy-4-oxo-1,4-dihydroquinoline-3-carboxylic acid]  260 nM
